For orientation: IC50 means the concentration that inhibits the measured activity by half. The low end stands for greater potency, the high end for weaker potency.

The structures appear in SMILES notation.

For one test, the target named is BRD9 bromodomain (Homo sapiens (Human), UniProt Q9H8M2). Nature of the test: BRD9 bromodomain TR-FRET competition binding assay. The settings on record: 3 nM Flag-BRD9, 3.75 nM biotinylated ligand, 90 minutes at room temperature. The method, then:
Cleaved His tag was removed by purification.
A mixture of biotinylated-ligand and SureLight™ Allophycocyanin-Streptavidin (APC-SA, PerkinElmer AD0201) in 50 mM HEPES (pH 7.4), 50 mM NaCl, 1 mM TCEP (pH 7), 0.01% (v/v) Tween-20, 0.01% (w/v) bovine serum albumin was added to a white 384-well PerkinElmer Proxiplate Plus plate. DMSO or 3-fold serially diluted compounds were then added to the Proxiplate followed by addition of Flag-BRD9. After a 10 minute incubation at room temperature, Eu-W1024 anti-FLAG (PerkinElmer, AD0273) was added.
On the technique in general: In TR-FRET formats the signal depends on donor and acceptor labels being close together.

The target of test [1] is Nanoluciferase-BRD9 fusion protein (3×FLAG-NLuc-BRD9) (Homo sapiens (Human), UniProt Q9H8M2). Kind of test: SYO1 BRD9 NanoLuc degradation assay. The settings on record: SYO-1 cells expressing 3×FLAG-NLuc-BRD9, 6 hours, 1 μM top dose; read-out: SYO1 BRD9-NanoLuc degradation IC50. It is filed as cell-based. The method, then: A stable SYO-1 cell line expressing 3×FLAG-NLuc-BRD9 was generated. On day 0 cells were seeded in 30 μL media into each well of 384-well cell culture plates. The seeding density was 8000 cells/well. […] Subsequently plates were incubated for 6 hours in a standard tissue culture incubator and equilibrated at room temperature for 15 minutes. Nanoluciferase activity was measured by adding 15 μL of freshly prepared Nano-Glo Luciferase Assay Reagent (Promega N1130), shaking the plates for 10 minutes and reading the bioluminescence using an EnVision reader.
The Inhibition % was calculated using the following formula: % Inhibition=100×(LumHC−LumSample)/(LumHC−LumLC). DMSO treated cells are employed as High Control (HC) and 1 μM of a known BRD9 degrader standard treated cells are employed as Low Control (LC).

Regarding `COc1cc(-c2cn(C)c(=O)c3cnccc23)cc(OCC(=O)NCCCCCCCCNc2cccc3c2C(=O)N(C2CCC(=O)NC2=O)C3=O)c1OC` (centres unmarked) [Compound D10, 2-(2,3-dimethoxy-5-(2-methyl-1-oxo-1,2-dihydro-2,7-naphthyridin-4-yl)phenoxy)-N-(8-((2-(2,6-dioxopiperidin-3-yl)-1,3-dioxoisoindolin-4-yl)amino)octyl)acetamide], the IC50 at BRD9 bromodomain lay within 10 to 100 nM. Further, the DC50 in test [1] was < 10 nM.

`COc1cc(-c2cn(C)c(=O)c3cnccc23)cc(OC)c1CN(C)CC(=O)NCCCCCCCCNC(=O)COc1cccc2c1C(=O)N(C1CCC(=O)NC1=O)C2=O` (centres unmarked) [Compound D5, N-[8-[2-([[2,6-dimethoxy-4-(2-methyl-1-oxo-1,2-dihydro-2,7-naphthyridin-4-yl)phenyl]methyl](methyl)amino)acetamido]octyl]-2-[[2-(2,6-dioxopiperidin-3-yl)-1,3-dioxo-2,3-dihydro-1H-isoindol-4-yl]oxy]acetamide]: the IC50 at BRD9 bromodomain was < 10 nM. Further, the DC50 in test [1] is < 10 nM.

On BRD9 bromodomain, `COc1cc(-c2cn(C)c(=O)c3cnccc23)cc(OC)c1CN(C)CC(=O)NCCCCCCCCNc1cccc2c1C(=O)N(C1CCC(=O)NC1=O)C2=O` (centres unmarked) [Compound D2, 2-([[2,6-dimethoxy-4-(2-methyl-1-oxo-1,2-dihydro-2,7-naphthyridin-4-yl)phenyl]methyl](methyl)amino)-N-(8-[[2-(2,6-dioxopiperidin-3-yl)-1,3-dioxo-2,3-dihydro-1H-isoindol-4-yl]amino]octyl)acetamide formic acid] showed a concentration for half-maximal inhibition (IC50) of 10 to 100 nM. Also, in test [1], the DC50 was < 10 nM.

For the compound `COc1cc(-c2cn(C)c(=O)c3cnccc23)cc(OC)c1CN(C)CC(=O)NCCCCCCCCCC(=O)N[C@H](C(=O)N1C[C@H](O)C[C@H]1C(=O)NCc1ccc(-c2scnc2C)cc1)C(C)(C)C` (stereo in doubt) [Compound D18, (2S,4R)-1-[(2S)-2-[10-[2-([[2,6-dimethoxy-4-(2-methyl-1-oxo-2,7-naphthyridin-4-yl)phenyl]methyl](methyl)amino)acetamido]decanamido]-3,3-dimethylbutanoyl]-4-hydroxy-N-[[4-(4-methyl-1,3-thiazol-5-yl)phenyl]methyl]pyrrolidine-2-carboxamide], on BRD9 bromodomain, the IC50 is < 10 nM. Besides, the DC50 in test [1] was < 10 nM.

`COc1cc(-c2cn(C)c(=O)c3cnccc23)cc(OC)c1CN(C)CCc1cccc2c1C(=O)N(C1CCC(=O)NC1=O)C2=O` (centres unmarked) [Compound D17, 4-[2-([[2,6-dimethoxy-4-(2-methyl-1-oxo-2,7-naphthyridin-4-yl)phenyl]methyl](methyl)amino)ethyl]-2-(2,6-dioxopiperidin-3-yl)isoindole-1,3-dione]: the DC50 in test [1] is > 1000 nM.

As for `COc1cc(-c2cn(C)c(=O)c3cnccc23)cc(OC)c1CN(C)C(=O)CCOc1cccc2c1C(=O)N(C1CCC(=O)NC1=O)C2=O` (centres unmarked) [Compound D14, N-[[2,6-dimethoxy-4-(2-methyl-1-oxo-1,2-dihydro-2,7-naphthyridin-4-yl)phenyl]methyl]-3-[[2-(2,6-dioxopiperidin-3-yl)-1,3-dioxo-2,3-dihydro-1H-isoindol-4-yl]oxy]-N-methylpropanamide], the IC50 on BRD9 bromodomain is < 10 nM. In test [1], the DC50 was > 1000 nM.

The compound `COc1cc(-c2cn(C)c(=O)c3cnccc23)cc(OC)c1CN(C)CCCCCCCC(=O)N[C@H](C(=O)N1C[C@H](O)C[C@H]1C(=O)NCc1ccc(-c2scnc2C)cc1)C(C)(C)C` [Compound D19, (2S,4R)-1-[(2S)-2-[8-([[2,6-dimethoxy-4-(2-methyl-1-oxo-2,7-naphthyridin-4-yl)phenyl]methyl](methyl)amino)octanamido]-3,3-dimethylbutanoyl]-4-hydroxy-N-[[4-(4-methyl-1,3-thiazol-5-yl)phenyl]methyl]pyrrolidine-2-carboxamide] showed an IC50 on BRD9 bromodomain of 10 to 100 nM. Moreover, the DC50 in test [1] was > 1000 nM.

In turn, `COc1cc(-c2cn(C)c(=O)c3cnccc23)cc(OC)c1CN(C)CC(=O)N(C)CCCCCNc1cccc2c1C(=O)N(C1CCC(=O)NC1=O)C2=O` (centres unmarked) [Compound D7, 2-([[2,6-dimethoxy-4-(2-methyl-1-oxo-1,2-dihydro-2,7-naphthyridin-4-yl)phenyl]methyl](methyl)amino)-N-(5-[[2-(2,6-dioxopiperidin-3-yl)-1,3-dioxo-2,3-dihydro-1H-isoindol-4-yl]amino]pentyl)-N-methylacetamide formic acid] had an IC50 at BRD9 bromodomain of 10 to 100 nM. The DC50 in test [1] was 10 to 100 nM.

Take `COc1cc(-c2cn(C)c(=O)c3cnccc23)cc(OC)c1CN(C)C(=O)CCCCCOc1cccc2c1C(=O)N(C1CCC(=O)NC1=O)C2=O` (centres unmarked) [Compound D4, N-[[2,6-dimethoxy-4-(2-methyl-1-oxo-1,2-dihydro-2,7-naphthyridin-4-yl)phenyl]methyl]-6-[[2-(2,6-dioxopiperidin-3-yl)-1,3-dioxo-2,3-dihydro-1H-isoindol-4-yl]oxy]-N-methylhexanamide]: in test [1], the DC50 was < 10 nM.

As for `COc1cc(-c2cn(C)c(=O)c3cnccc23)cc(OC)c1CN1CC(C(=O)O)C1` [Compound B21, 1-[[2,6-dimethoxy-4-(2-methyl-1-oxo-1,2-dihydro-2,7-naphthyridin-4-yl)phenyl]methyl]azetidine-3-carboxylic acid], the IC50 on BRD9 bromodomain fell in the range of 10 to 100 nM.

Consider `COc1cc(-c2cn(C)c(=O)c3cnccc23)cc(SC)c1CN(C)C` [Compound B54, 4-[4-[(dimethylamino)methyl]-3-methoxy-5-(methylsulfanyl)phenyl]-2-methyl-1,2-dihydro-2,7-naphthyridin-1-one], for which the half-maximal inhibitory concentration (IC50) on BRD9 bromodomain was < 10 nM.

Consider `COc1cc(-c2cn(C)c(=O)c3cnccc23)cc(OC)c1CN1CC(N)C1` [Compound B20, 4-[4-[(3-aminoazetidin-1-yl)methyl]-3,5-dimethoxyphenyl]-2-methyl-1,2-dihydro-2,7-naphthyridin-1-one], for which, on BRD9 bromodomain, the IC50 was < 10 nM.

On to `COc1cc(C#N)ccc1S(=O)(=O)Nc1ccc2c(c1)cc(C)c(=O)n2C` [Compound B26], for which, on BRD9 bromodomain, the IC50 is > 1000 nM.

As for `COc1cc(-c2cn(C)c(=O)c3cnccc23)cc(F)c1CN(C)C` [Compound B67, 4-(4-((dimethylamino)methyl)-3-fluoro-5-methoxyphenyl)-2-methyl-2,7-naphthyridin-1(2H)-one], the IC50 on BRD9 bromodomain was 10 to 100 nM.

Consider `COc1c(CN(C)C)ccc(-c2cn(C)c(=O)c3cnccc23)c1F` [Compound B66, 4-(4-((dimethylamino)methyl)-2-fluoro-3-methoxyphenyl)-2-methyl-2,7-naphthyridin-1(2H)-one], for which, on BRD9 bromodomain, the IC50 was 100 to 1000 nM.

Turning to `Cn1cc(C(=O)NCc2ccccc2)c2ccncc2c1=O` [Compound B3], the IC50 on BRD9 bromodomain was > 1000 nM.

With `CNC(=O)c1ccc2c(=O)n(C)cc(-c3cc(OC)c(CN(C)C)c(OC)c3)c2c1` [Compound B63, 4-(4-((dimethylamino)methyl)-3,5-dimethoxyphenyl)-N,2-dimethyl-1-oxo-12-dihydroisoquinoline-6-carboxamide], the half-maximal inhibitory concentration (IC50) on BRD9 bromodomain was 10 to 100 nM.

On BRD9 bromodomain, `COc1cc(-c2cc(NC(C)=O)c(=O)n(C)c2)cc(OC)c1CN(C)C` [Compound B29, N-(5-[4-[(dimethylamino)methyl]-3,5-dimethoxyphenyl]-1-methyl-2-oxo-1,2-dihydropyridin-3-yl)acetamide] displayed an IC50 of 100 to 1000 nM.

In the case of `O=C(NCc1ccccc1)c1cn(CC2CC2)c(=O)c2[nH]ncc12` [Compound B13], the IC50 at BRD9 bromodomain was > 1000 nM.

`COc1cc(-c2cn(C)c(=O)c3cnccc23)cc(OC)c1CN1CC(CC(=O)O)C1` [Compound B41, 2-(1-[[2,6-dimethoxy-4-(2-methyl-1-oxo-1,2-dihydro-2,7-naphthyridin-4-yl)phenyl]methyl]azetidin-3-yl)acetic acid formic acid] showed an IC50 on BRD9 bromodomain of 10 to 100 nM.

As to `CCC(=O)Nc1c(C)c(-c2cc(OC)c(CN(C)C)c(OC)c2)cn(C)c1=O` [Compound B31, N-(5-[4-[(dimethylamino)methyl]-3,5-dimethoxyphenyl]-1,4-dimethyl-2-oxo-1,2-dihydropyridin-3-yl)propanamide], the IC50 on BRD9 bromodomain is > 1000 nM.

Compound `CNCc1c(OC)cc(-c2cn(C)c(=O)c3cnccc23)cc1OC` [Compound B53, 4-[3,5-dimethoxy-4-[(methylamino)methyl]phenyl]-2-methyl-1,2-dihydro-2,7-naphthyridin-1-one] had an IC50 on BRD9 bromodomain of 10 to 100 nM.

For `Cn1cc(C(=O)NCc2cccc3ccccc23)c2cn[nH]c2c1=O` [Compound B4], the IC50 on BRD9 bromodomain is > 1000 nM.

As to `CC(=O)c1cc(-c2cccc3nccn23)c2cc(N3CCOCC3)ccn12` [Compound B16, 1-(1-[imidazo[1,2-a]pyridin-5-yl]-7-(morpholin-4-yl)indolizin-3-yl)ethan-1-one], the 50% inhibitory concentration (IC50) on BRD9 bromodomain was in the range of 100 to 1000 nM.

With `COc1cc(-c2cn(C)c(=O)c3cnncc23)cc(OC)c1CN(C)C` [Compound B52, 8-[4-[(dimethylamino)methyl]-3,5-dimethoxyphenyl]-6-methyl-5H,6H-pyrido[3,4-d]pyridazin-5-one], the IC50 on BRD9 bromodomain was in the range of 10 to 100 nM.

The values above are taken from patent US11773085B2 (Foghorn Therapeutics Inc., priority 2018, dated 2023).
